Laboratory results taken from patent publication US10512627B2, “Anti-tumor compound and the medical use thereof” (Tianjin Medical University Cancer Institute and Hospital, priority 2014, dated 2019).

Tested on: MDA-MB-231 cells
Assay: MTT assay, proliferation of MDA-MB-231 (Example 11)
Format: cell-based
Settings: Homo sapiens, 48 h
Protocol: The half inhibitory concentration of (S)2-(4′-methyl-3′-nitrobenzoylamino)-3-phenylpropionic acid for MDA-MB-231 cells was tested by MTT assay.
2) 5 mg/mL MTT solution was prepared with sterilized PBS, filtered with 0.22 um film, and then diluted with medium to 1 mg/mL. The medium in the 96-well plate was discarded, and 100 μL 1 mg/mL MTT working solution was add, followed by continuous culturing for 5 h.
3) MTT working solution was discarded, and 150 μL DMSO was added to each well (note: to away from light), and then the plate was shaken on the horizontal shaker at 170 rpm for 10 min, followed by detecting the absorbance at 490 nm with microplate reader.

Cc1ccc(C(=O)N[C@@H](Cc2ccccc2)C(=O)O)cc1[N+](=O)[O-] [(S)2-(4′-methyl-3′-nitrobenzoylamino)-3-phenylpropionic acid]
IC50: 2.45 mM
